The text below walks through data of patent publication US7754228B2, “Cytotoxic T-cell epitopes from Chlamydia” (Novartis Vaccines and Diagnostics, Srl, priority 2002, dated 2010).

In one test the test system is HLA A2. The format is binding, human. The conditions noted are these: for Mean 1 / Mean 2 / binding to HLA A2 (in words): RMA-S/A2 cells; for Mean 1: peptide and only anti-mouse secondary antibody; for Mean 1 / Mean 2: FACS mean; for Mean 2: peptide, anti-A2 Mab BB7.2 and secondary antibody; for binding to HLA A2 (in words): in vitro binding assay.
Test [1] deals with CD8^+ cells from immunised transgenic mice. Briefly: IFN-γ/CD8+ ELISpot assay after DNA immunisation of HLA-A2 transgenic mice. Format: cell-based. The note with it: for Mean IFN-γ^+ve per 10^6 CD8^+ve cells: after subtraction of HepB negative controls; for number of IFN-γ secreting CD8^+ (in words): spleen cells of DNA immunised transgenic mice. From the text: Full-length C.pneumoniae and C.trachomatis genes encoding the polypeptides which contain CTL epitopes were amplified by PCR using the primers in Table 4 and cloned into plasmid expression vector pCMVKASF2-120, from which the gp120 sequence had been previously excised by treatment with NheI and SalI restriction enzymes. The chlamydial sequences were thus downstream of the tPA signal sequence.
The plasmids were used for DNA immunisation of transgenic mice expressing the human HLA-A2 gene which express a chimeric class I molecule composed of the α1 and α2 domains of HLA-A2.1 and the α3 transmembrane and cytoplasmic domains of H-2K^b.
Mice were immunised at days 0, 21 and 35 by intramuscular injection of 50μg endotoxin-free recombinant plasmid DNA. One week after the third immunisation, the animals were sacrificed, spleens were removed and CD8+ cells were purified by means of CD8α(Ly-2) Microbeads and LS Separation Columns following the technical procedures described by Miltenyi Biotec™. These CD8^+ cells were tested by Elispot assay to detect cells which secrete IFN-γ in response to given peptides. The Elispot procedure was as follows: • 1. 96-well nitrocellulose plates are coated with 5 μg/ml anti-mouse IFN-γ in 100 μl carbonate buffer, pH 9.2. Cover plate with lid and incubate overnight (o.n.) at 4° C. • 2. Discard coating antibody. Rinse plates 3 times with PBS (200 μl per rinse). Shake excess liquid from plate and pat bottom of plate with dry absorbent paper. • 3. Add 200 μl blocking solution (PBS-BSA 1%) to each well to saturate remaining binding sites and incubate 2 hours at 37° C. (or o.n. at 4° C.). • 4. Discard blocking solution, wash plate 3 times with PBS (200 μl per rinse). Shake excess liquid from plate and pat bottom of plate with dry absorbent paper. • 5. Add 100 μl complete medium and incubate 10 minutes at room temperature. Discard liquid and pat bottom of plate with dry absorbent paper. • 6. Add cells (5×10^4 CD8^+ from immunised transgenic mice and 2×10^5 irradiated spleen cells from non-immunised transgenic mice) with complete medium supplemented with the tested peptide (5, 10 or 20 μg/ml) and IL-2 (10 units/ml). • 7. Incubate 20-24 hours in a humidified 37° C., 5% CO2 incubator. • 8. Take off medium, add 200 μl per wash of ice-cold distilled water and incubate on ice for 10 minutes. Then wash ten times in wash buffer (PBS-Tween 0.05%), 2001 per wash. Shake excess liquid from plate and pat bottom of plate with dry absorbent paper. • 9. To detect IFN-γ spots, add 1 μg/ml biotinylated anti mouse IFN-γ in 100 μl in Elispot dilution buffer (PBS-BSA 1%) and incubate 2 hours at 37° C. • 10. Wash plate 3 times with wash buffer (PBS-Tween 0.05%), 200 μl per wash and 3 times with PBS without Tween (200 μl). Shake excess liquid from plate and pat bottom of plate with dry absorbent paper. • 11. Add 100 μl 1:2000 dilution of alkaline phosphatase-coupled avidin in PBS-BSA 1% (Sigma). Incubate 1 hour at 37° C. • 12. Wash plate 3 times with wash buffer (PBS-Tween 0.05%), 2001il per wash and 3 times with PBS without Tween (200 μl). Shake excess liquid from plate and pat bottom of plate with dry absorbent paper. • 13. Spots of […] secreting cells are visualised by adding 50 μl of the ready-to-use substrate BCIP/NBT (Sigma) dissolved in water. The reaction is stopped after 45 minutes at 37° C. by several washes with distilled water.
Values are shown after subtraction of HepB negative controls.

“Also recorded” adds a separate entry of the source. Where two headings read alike, the source gives them in different places.

On to YVFDRILKV [CH13], for which, in the test on HLA A2, the “High - B” value is given as 119, the “Δ Mean” value turned out to be 365 and the “binding to HLA A2 (in words)” value is listed as “bind to HLA A2”. In addition, in the test with HLA A2 (100 μM peptide), the “Mean 1” value is reported as 217 and the “Mean 2” value is 582. Moreover, the “Mean IFN-γ^+ve per 10^6 CD8^+ve cells” value in test [1] (peptide dose 5 μg/ml) was 466.8 per 10^6 CD8^+ve cells. In addition, the “Mean IFN-γ^+ve per 10^6 CD8^+ve cells” value in test [1] (peptide dose 10 μg/ml) was 700 per 10^6 CD8^+ve cells. Also, the “Mean IFN-γ^+ve per 10^6 CD8^+ve cells” value in test [1] (peptide dose 20 μg/ml) is 540 per 10^6 CD8^+ve cells. The “number of IFN-γ secreting CD8^+ (in words)” value (from here on “number”) in test [1] was “well above background levels”.
Consider SITVFRWLV [CH58], for which, in the test on HLA A2, the “High - B” value is recorded as −15, the “Δ Mean” value is given as 145 and the “binding to HLA A2 (in words)” value is on record as “negative results”. Also, in the test with HLA A2 (10 μM peptide), the “Mean 1” value came to 155 and the “Mean 2” value stood at 300. Also, the “Mean IFN-γ^+ve per 10^6 CD8^+ve cells” value in test [1] (peptide dose 5 μg/ml) is given as 1046 per 10^6 CD8^+ve cells. Moreover, in test [1] (peptide dose 10 μg/ml), the “Mean IFN-γ^+ve per 10^6 CD8^+ve cells” value is 980 per 10^6 CD8^+ve cells. Moreover, the “Mean IFN-γ^+ve per 10^6 CD8^+ve cells” value in test [1] (peptide dose 20 μg/ml) is 986 per 10^6 CD8^+ve cells. Besides, the “number” value in test [1] is on record as “well above background levels; also recorded: strongly positive”.
As to GLTEEIDYV [CH10], in the test with HLA A2, the “High - B” value was determined as 139, the “Δ Mean” value is given as 385 and the “binding to HLA A2 (in words)” value is on record as “bind to HLA A2”. Besides, in the test on HLA A2 (10 μM peptide), the “Mean 1” value was 202 and the “Mean 2” value is given as 587. For the same sequence, in test [1] (peptide dose 5 μg/ml), the “Mean IFN-γ^+ve per 10^6 CD8^+ve cells” value worked out at 226 per 10^6 CD8^+ve cells. In addition, in test [1] (peptide dose 10 μg/ml), the “Mean IFN-γ^+ve per 10^6 CD8^+ve cells” value is recorded as 233.3 per 10^6 CD8^+ve cells. Moreover, the “Mean IFN-γ^+ve per 10^6 CD8^+ve cells” value in test [1] (peptide dose 20 μg/ml) was 200 per 10^6 CD8^+ve cells. For the same sequence, the “number” value in test [1] is recorded as “well above background levels”.
For FLTLAWWFI [CH8], in the test on HLA A2, the “High - B” value is reported as 82, the “Δ Mean” value was 328 and the “binding to HLA A2 (in words)” value was “bind to HLA A2”. For the same sequence, in the test with HLA A2 (1 μM peptide), the “Mean 1” value is given as 204 and the “Mean 2” value is 532.
The matching figures for WLVFFNPFV [CH12]: 0, 211, “do not seem to bind”, 204 and 415.
On to WLLRDDWLL [CH31], for which, in the test on HLA A2, the “High - B” value is given as 89, the “Δ Mean” value came to 243 and the “binding to HLA A2 (in words)” value is on record as “bind to HLA A2”. In the test with HLA A2 (100 μM peptide), the “Mean 1” value is given as 165 and the “Mean 2” value came to 408.
For “TLWGSFVDV (listed as Chlamydia pneumoniae) [CH21]”, in that order: 121, 275, “bind to HLA A2”, 165 and 440.
With “KLLKDHFDL (listed as Chlamydia pneumoniae) [CH34]”, in the test with HLA A2, the “High - B” value was 81, the “Δ Mean” value came to 235 and the “binding to HLA A2 (in words)” value is “bind to HLA A2”. In addition, in the test with HLA A2 (100 μM peptide), the “Mean 1” value was determined as 155 and the “Mean 2” value was 390.
In the case of VMLFIGLGV [CH60], in the test with HLA A2, the “High - B” value is −27 and the “Δ Mean” value amounted to 133. Moreover, in the test with HLA A2 (10 μM peptide), the “Mean 1” value amounted to 148 and the “Mean 2” value was determined as 281.
With LIQETLLFV [CH24], in the test on HLA A2, the “High - B” value came out at 75, the “Δ Mean” value is 229 and the “binding to HLA A2 (in words)” value is “bind to HLA A2”. In the test with HLA A2 (100 μM peptide), the “Mean 1” value came out at 165 and the “Mean 2” value came to 394.
Take YLLEEIYTV [CH6]: in the test with HLA A2, the “High - B” value is 130, the “Δ Mean” value is 376 and the “binding to HLA A2 (in words)” value is “bind to HLA A2”. For the same sequence, in the test with HLA A2 (10 μM peptide), the “Mean 1” value worked out at 198 and the “Mean 2” value is recorded as 574. In test [1] (peptide dose 5 μg/ml), the “Mean IFN-γ^+ve per 10^6 CD8^+ve cells” value was 106.8 per 10^6 CD8^+ve cells. Also, the “Mean IFN-γ^+ve per 10^6 CD8^+ve cells” value in test [1] (peptide dose 10 μg/ml) was determined as 486.8 per 10^6 CD8^+ve cells. In test [1] (peptide dose 20 μg/ml), the “Mean IFN-γ^+ve per 10^6 CD8^+ve cells” value turned out to be 266.6 per 10^6 CD8^+ve cells. Moreover, the “number” value in test [1] was “well above background levels”.
As for KLSEQLEAL [CH41], in the test with HLA A2, the “High - B” value is on record as 101, the “Δ Mean” value is reported as 261 and the “binding to HLA A2 (in words)” value is recorded as “bind to HLA A2; also recorded: positive in the binding assay”. For the same sequence, in the test with HLA A2 (100 μM peptide), the “Mean 1” value came to 162 and the “Mean 2” value is reported as 423.
As to YLALDPDSV [CH48], in the test with HLA A2, the “Δ Mean” value amounted to 303 and the “binding to HLA A2 (in words)” value was “bind to HLA A2; also recorded: positive in the binding assay”. In addition, in the test with HLA A2 (100 μM peptide), the “Mean 1” value was 148 and the “Mean 2” value was found to be 451. The “rank in the binding assay among five epitopes predicted in protein 4376601” value with HLA A2 (CH44 to CH48) was “strongest epitope using the binding assay”.
For “VQLAYVFDV (listed as Chlamydia pneumoniae) [CH16]”, in the test on HLA A2, the “High - B” value was 0, the “Δ Mean” value came out at 232 and the “binding to HLA A2 (in words)” value is reported as “do not seem to bind”. In the test on HLA A2 (100 μM peptide), the “Mean 1” value worked out at 201 and the “Mean 2” value turned out to be 433.
In the case of YLMQKLQNV [CH29], in the test with HLA A2, the “High - B” value amounted to 111, the “Δ Mean” value turned out to be 265 and the “binding to HLA A2 (in words)” value is “bind to HLA A2”. Further, in the test on HLA A2 (100 μM peptide), the “Mean 1” value came out at 153 and the “Mean 2” value is 418.
For KVLLGQEWV [CH42], in that order: 40, 200, “bind to HLA A2”, 136 and 336.
Regarding YMDNNLFYV [CH7], in the test with HLA A2, the “High - B” value is 102, the “Δ Mean” value turned out to be 348 and the “binding to HLA A2 (in words)” value is on record as “bind to HLA A2”. For the same sequence, in the test with HLA A2 (10 μM peptide), the “Mean 1” value is 203 and the “Mean 2” value amounted to 551. Further, the “ΔMean at high concentrations of peptide (in words)” value with HLA A2 (high peptide concentrations, non-homogeneous fluorescent signal, most likely non-specific effects) is “Very low ΔMean values”. Also, in test [1] (peptide dose 5 μg/ml), the “Mean IFN-γ^+ve per 10^6 CD8^+ve cells” value was found to be 366 per 10^6 CD8^+ve cells. In test [1] (peptide dose 10 μg/ml), the “Mean IFN-γ^+ve per 10^6 CD8^+ve cells” value is 400 per 10^6 CD8^+ve cells. The “Mean IFN-γ^+ve per 10^6 CD8^+ve cells” value in test [1] (peptide dose 20 μg/ml) came out at 433 per 10^6 CD8^+ve cells. Besides, in test [1], the “number” value is on record as “well above background levels”.
